# Columns and labels:
# [1] = system: rat; experiment: rat water maze test (cognition enhancement); assay type: in vivo
# [2] = exposure of the anhydrous form to pure water (XRPD of solids); assay type: physicochemical
# Method: To an Eppendorf tube was added 1 mL USP water and 20 mg 3-(5-methylisoxazol-3-yl)-6-(1-methyl-1,2, 3-triazol-4-yl)methyloxy-1,2, 4-triazolo[3,4-a]phthalazine. The resulting suspension was vortexed for 10 seconds, then light protected with aluminium foil and placed on a rotary mixer for 72 hours. The solids were then vacuum filtered off and rinsed with 2xl mL water. Solids were partially wet when first analyzed by XRPD, afterward they were dried by house vacuum for 48 hours before more XRPD analysis.
# The XRPD data have been described earlier with the exception of the incompletely converted material from the synthesis in water. […] Conversion may take place more rapidly if solubility is increased by the addition of di-sodium pamoate or by other means. The di-hydrate may also be prepared using a 10% solution of MeCN in water.
# [3] = system: receptor; experiment: receptor occupancy at the minimum effective dose; assay type: in vivo, rat; details: at the minimum effective dose of 0.3 mg/kg
# [4] = molecular target: T1, human GABAA receptors containing the α5 subunit stably expressed in Ltk cells (Homo sapiens, UniProt P18507+P31644); experiment: displacement of [3H]-flumazenil ([3H]Ro 15-1788) from the benzodiazepine binding site; details: read-out: Ki value for displacement of [3H]Ro 15-1788 from the α5 subunit of the human GABAA receptor
# T1 construct: expressed in transfected cells; host or cells: Ltk cells (mouse fibroblasts), stably expressing
# T1 sequence (P31644 32-462): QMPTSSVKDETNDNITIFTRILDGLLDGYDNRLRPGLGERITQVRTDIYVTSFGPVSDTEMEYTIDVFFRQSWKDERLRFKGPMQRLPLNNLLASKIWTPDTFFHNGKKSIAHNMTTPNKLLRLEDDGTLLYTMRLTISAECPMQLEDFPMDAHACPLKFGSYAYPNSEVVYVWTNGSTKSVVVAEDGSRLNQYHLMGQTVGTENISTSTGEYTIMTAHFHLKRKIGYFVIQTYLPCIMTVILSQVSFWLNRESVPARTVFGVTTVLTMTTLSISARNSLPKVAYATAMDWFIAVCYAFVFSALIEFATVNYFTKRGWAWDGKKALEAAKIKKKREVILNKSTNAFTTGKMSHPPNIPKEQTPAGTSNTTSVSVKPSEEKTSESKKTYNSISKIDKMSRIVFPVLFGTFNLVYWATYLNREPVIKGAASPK
# T1 sequence (P18507 40-467 limits assumed): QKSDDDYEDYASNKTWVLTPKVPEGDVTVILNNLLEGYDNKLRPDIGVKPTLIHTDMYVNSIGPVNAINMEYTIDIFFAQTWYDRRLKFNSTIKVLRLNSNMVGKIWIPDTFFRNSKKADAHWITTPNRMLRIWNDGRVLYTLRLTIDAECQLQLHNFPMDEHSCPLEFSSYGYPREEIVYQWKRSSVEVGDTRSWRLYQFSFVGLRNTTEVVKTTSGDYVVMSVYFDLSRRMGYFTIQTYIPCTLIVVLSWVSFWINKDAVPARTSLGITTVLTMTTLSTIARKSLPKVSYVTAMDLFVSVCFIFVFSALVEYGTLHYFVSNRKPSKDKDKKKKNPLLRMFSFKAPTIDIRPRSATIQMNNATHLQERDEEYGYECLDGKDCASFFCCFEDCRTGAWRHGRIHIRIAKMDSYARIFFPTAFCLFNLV
# T1 sequence (P28472 26-473 partner): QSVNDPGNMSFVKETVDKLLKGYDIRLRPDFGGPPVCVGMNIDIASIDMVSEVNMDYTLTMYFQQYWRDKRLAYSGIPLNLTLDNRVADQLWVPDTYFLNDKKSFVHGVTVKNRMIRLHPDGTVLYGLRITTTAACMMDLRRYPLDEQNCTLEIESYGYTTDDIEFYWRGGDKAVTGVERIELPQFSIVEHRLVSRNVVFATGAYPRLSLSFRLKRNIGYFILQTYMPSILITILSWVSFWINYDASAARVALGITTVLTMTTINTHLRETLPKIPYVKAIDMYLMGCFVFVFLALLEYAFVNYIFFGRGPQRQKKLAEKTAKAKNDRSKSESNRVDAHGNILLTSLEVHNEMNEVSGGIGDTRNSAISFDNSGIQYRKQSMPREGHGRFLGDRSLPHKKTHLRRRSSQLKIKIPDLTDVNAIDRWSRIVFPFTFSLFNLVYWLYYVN
# [5] = time dependent solubility in 2.5% aqueous di-sodium pamoate solution by HPLC; assay type: physicochemical
# Method: To a stirred, light protected glass vial was added 23.0 mL 2.5% aqueous di-sodium pamoate solution and 42 mg 3-(5-methylisoxazol-3-yl)-6-(1-methyl-1,2,3-triazol-4-yl)methyloxy-1,2,4-triazolo[3,4-a]phthalazine. Aliquots were removed by 3 mL syringe at various time intervals, passed through 0.22 μm Millex-GV low protein binding syringe filters, and diluted to appropriate concentrations with 50/50 MeCN/H2O for HPLC analysis.
Structure (SMILES),minimum effective dose [1],enhancement of cognition ([1]; demonstrated at 0.3 mg/kg and 3 mg/kg),solubility in pure water [2],receptor occupancy [3],Ki [4],"solubility at 5 minutes ([5]; 2.5% aqueous di-sodium pamoate solution, aqueous with cosolvent or surfactant or cyclodextrin, thermodynamic from solid, 5 minutes (0.08 h), read-out: Concentration (solubility by HPLC))","solubility at 90 minutes ([5]; 2.5% aqueous di-sodium pamoate solution, aqueous with cosolvent or surfactant or cyclodextrin, thermodynamic from solid, 90 minutes (1.50 h), read-out: Concentration (solubility by HPLC))","solubility at 930 minutes ([5]; 2.5% aqueous di-sodium pamoate solution, aqueous with cosolvent or surfactant or cyclodextrin, thermodynamic from solid, 930 minutes (15.5 h), read-out: Concentration (solubility by HPLC))","solubility at 1500 minutes ([5]; 2.5% aqueous di-sodium pamoate solution, aqueous with cosolvent or surfactant or cyclodextrin, thermodynamic from solid, 1500 minutes (25.0 h), read-out: Concentration (solubility by HPLC))","solubility at 2910 minutes ([5]; 2.5% aqueous di-sodium pamoate solution, aqueous with cosolvent or surfactant or cyclodextrin, thermodynamic from solid, 2910 minutes (48.5 h), read-out: Concentration (solubility by HPLC))",% of 5 Minute Value ([5]; 5 minutes (0.08 h)),% of 5 Minute Value ([5]; 90 minutes (1.50 h)),% of 5 Minute Value ([5]; 930 minutes (15.5 h)),% of 5 Minute Value ([5]; 1500 minutes (25.0 h)),% of 5 Minute Value ([5]; 2910 minutes (48.5 h)),"decrease in solubility over time, % of the original solubility after 5 minutes ([5]; summary of Table 1)",melting point
"Cc1cc(-c2nnc3c4ccccc4c(OCc4cn(C)nn4)nn23)no1 [L-822, 179, 3-(5-methylisoxazol-3-yl)-6-(1-methyl-1,2,3-triazol-4-yl)methyloxy-1,2,4-triazolo[3,4-a]phthalazine]",0.3 mg/kg,enhance cognition,extreme insolubility,40%,≤ 100 nM,1890 µg/mL,1920 µg/mL,1410 µg/mL,1290 µg/mL,1240 µg/mL,100.0%,101.4%,74.5%,68.0%,65.4%,~65%,
"Cc1cc(-c2nnc3c4ccccc4c(OCc4cccc(Br)n4)nn23)no1 [compound 2, 6-(6-Bromopyridin-2-yl)methyloxy-3-(5-methylisoxazol-3-yl)-1,2,4-triazolo[3,4-a]phthalazine]",,,,,,,,,,,,,,,,,247.5 to 249 °C

# Source: patent publication US6534505B2, “Therapeutic polymorphs of a GABA-A alpha-5 inverse agonist and pamoate formulations of the same” (Merck & Co., Inc., priority 1998, dated 2003)
